Results reported in patent publication US10874752B2, “MIBG analogs and uses thereof” (Board of Regents of The University of Nebraska, priority 2015, dated 2020).
Each block holds one compound with its values, some of them ahead of it.

Legend:
[1] = Stability in human serum (HPLC of extracts); type: in vitro ADME; details: up to 24 h, ambient temperature or 37° C.
Description: (§1) Incubations: into a solution (1980 μL) of serum (mouse, human), buffer or cells media, a sample of (17a), (185-390 kBq) in 15-20 μL of 25% EtOH/PB (100 mM, pH 6.1) was added; the resulting mixture was briefly vortexed and kept (up to 24 h) at ambient temperature or inside the incubator (37° C./˜5% CO2). At each time point, a volume of 1 mL was withdrawn, the extract of sample prepared and analyzed by HPLC.
(§2) Preparation of extracts: a sample (1 mL) from each incubated mixture with compound (17a) was treated with MeCN (1 mL), vortexed, and centrifuged (2,000 rpm, 15 min). The supernatant was removed and the radioactivity measured. Aliquots of supernatant (250-500 μL) were acidified to pH˜6 with 0.05 N TFA (2-8 μL). The excess of MeCN was evaporated with a stream of nitrogen and water (100 μL) added. A mixture was passed through a 0.2μ filter and each sample (˜100 μL, 95-185 kBq) injected on HPLC system.
(§3) HPLC analysis of extracts: continued on Columbus C18 100 Å (5 μm, 4.6×250 mm) column; eluted at 0.8 mL/min with a linear gradient of MeCN from 0 to 95% over 60 min and 95% MeCN was kept for a period of further 20 min, detecting the radioactivity (Bioscan NaI(T)). Both solvents contained 0.07% TFA (v/v).

[2] = Stability in mouse serum (HPLC of extracts); type: in vitro ADME; details: up to 24 h, ambient temperature or 37° C.
Description: as §1, §2, §3

[3] = cited from earlier work
[4] = system: SK-N-SH cells; assay: Uptake by SK-N-SH cells competed by MIBG; type: cell-based, human; details: competition with MIBG (FIG. 16)
[5] = system: SK-N-SH NB cells; assay: Subcellular distribution of 125I in SK-N-SH NB cells; type: cell-based, human; details: SK-N-SH NB cells exposed at 80 kBq/mL for 1 h, harvested 24 h later
Excerpt: (§4) Conjugate 17b was used for further testing. […] All drugs were designed so that they produce either 5-radioiodo-2′-deoxyuridine [RIUdR] or its 5′-monophosphate. Both metabolites can participate in the DNA synthesis allowing deposits of high LET radiation directly within the DNA structure. RIUdR, incorporated into the DNA of cancer cells in place of thymidine, is retained there for the life of the cell. It is extraordinarily lethal when labeled with Auger-electron-emitting radioiodines, which produce a cascade of monoenergetic electrons known as conversion and Auger electrons. These electrons deposit their energy within a tiny sphere around the decaying atom, i.e., the effective distance of Auger electrons is less than the diameter of the cancer cell nucleus. As a result, their cytotoxicity is dependent on the intranuclear localization, i.e., within the DNA or immediate vicinity of the DNA. Radiotoxicity of several reagents was tested in SK-N-SH cells. Tested drugs eradicate NB cells more efficiently than MIBG.

[6] = system: human NB SK-N-SH cells; assay: Radiotoxicity, clonogenic assay in SK-N-SH cells; type: cell-based
Excerpt: as §4
FIG. 14A-C show results of a pilot radiotoxicity study comparing the reproductive integrity of colonies of human NB SK-N-SH cells treated with conjugate 17b (radiolabeled with ^125I) and ^125IMIBG at 37 kBq/mL, two weeks after treatment.

- stability in human serum [1]: limited
- stability in mouse serum [2]: limited
SMILES: N=C(N)NCCC(=O)OC[C@H]1O[C@@H](n2cc([125I])c(=O)[nH]c2=O)C[C@@H]1O [17a, 5-[^125I]-Iodo-5′-O-propionylguanidino-2′-deoxyuridine]

SMILES: N=C(N)NCc1cccc([131I])c1 [^131IMIBG, ^131I-metaiodobenzylguanidine]
- long-term survivors developing thyroid disorders ([3]; long-term survivors treated with 131IMIBG): over 80%
- maximum tolerated dose ([3]; patients with neuroblastoma): > 600 MBq/kg

SMILES: N=C(N)NCCCCCC(=O)OC[C@H]1O[C@@H](n2cc([125I])c(=O)[nH]c2=O)C[C@@H]1O [conjugate 17b, 5-[^125I]-Iodo-5′-O-hexanoylguanidino-2′-deoxyuridine]
- uptake by SK-N-SH cells [4]: competed by MIBG
- subcellular distribution of 125I [5]: All ^125I is associated with the DNA fraction
- retention within the cell [6]: trapped within the cell
- radiotoxicity (reproductive integrity of colonies) ([6]; 37 kBq/mL, two weeks after treatment, compared with 125IMIBG): far more radiotoxic
- cells receiving a lethal dose of radiation, clonogenic assay ([6]; 1 h with the drug, compared with 125IMIBG): more cells receive a lethal dose of radiation
